Assay results: patent US20220322719A1, “INTESTINAL HEALTH PROMOTING COMPOSITIONS” (NSE Products, Inc., priority 2016, published 2022)

Key:
[1] = 500 mg isotopically labeled, single dose, male subjects (n=8); cited from earlier work
[2] = test system: Caco-2 cell monolayers; assay: TNFα-induced decrease of transepithelial electrical resistance (TEER) in Caco-2 monolayers; type: cell-based; settings: FIGS. 17-20

Row | SMILES | adverse effects [1] | time metabolites were present in the circulation [1] | TNFα induced losses of intestinal barrier integrity (TEER) [2]
1 | OC[C@H]1O[C@@H](Oc2cc3c(O)cc(O)cc3[o+]c2-c2ccc(O)c(O)c2)[C@H](O)[C@@H](O)[C@@H]1O [cyanidin-3-glucoside] | no adverse effects | less than or equal to 48 hours | –
2 | Oc1cc(O)c2c(c1)OC(c1ccc(O)c(O)c1)C(O)C2 (stereo not drawn) [catechins, catechin] | – | – | prevents TNFα induced losses of intestinal barrier integrity
